Read-outs that look alike come from different tables or passages of the source.
Experiments:
[1] = Plasma protein binding (equilibrium dialysis), human; assay type: in vitro ADME; conditions: 1 and 10 μM, equilibrium dialysis 18 h, read-out: bound to plasma proteins (converted)
Procedure: Concentrated (10 mM) DMSO stock solutions of olinciguat were diluted to 1 and 10 μM in 2.5 ml of rat (male and female Sprague Dawley) and human plasma. Concentrated [^14C]-labeled olinciguat (1 μl,1 mCi/ml stock concentration) was spiked into each sample and mixed by vortexing. Triplicate 500 μl aliquots of plasma containing [^14C]-labeled olinciguat were transferred to a Rapid Equilibrium Dialysis system and dialyzed (molecular weight cut-off ~8000 Da) against 500 μl of phosphate-buffered saline (PBS) at room temperature for 18 h. Radioactivity of [^14C]-labeled olinciguat in PBS and plasma samples was measured using liquid scintillation counting.

[2] = system: Sprague-Dawley rats with LAD ligation (post-MI); assay: Rat post-myocardial infarction model; assay type: in vivo; conditions: 30 mg/kg/day, total plasma concentration x 1.0% free
Procedure: (§1) Male Sprague-Dawley rats (n = 24, 270–330 g) were studied. MI was induced by permanent ligation of the left anterior descending (LAD) coronary artery. Briefly, after anesthesia with 5% isoflurane, rats were intubated and ventilated using a small animal ventilator (Model 683, Harvard Apparatus). Surgery was performed under sterile conditions. Briefly, the heart was exposed through left thoracotomy, the pericardium was incised, and the LAD coronary artery was ligated with 4-0 silk suture (Ethicon, Inc.). The lungs were inflated, and the chest wall was closed in three layers. Approximately 100 µl of 0.25% marcaine was applied directly to the edge of the skin incision. Long-acting buprenorphine (1 mg/kg/day, s.c.) was administered after the surgery for postoperative pain relief. Sham-operated rats underwent the same procedure without ligation of the LAD.
(§2) Treatment was initiated within 24 h following surgery. The Sham and MI control groups were maintained on chow for the entire 8-week treatment period. Rats in the MI + olinciguat group received olinciguat in chow at the targeted dose of 30 mg/kg/day for the entire 8-week treatment period. Ejection fraction (EF) was measured at week 8 by echocardiography using the long axis view of the left ventricle in B-mode.
(§3) In the post-MI study, data were analyzed by one-way ANOVA, followed by Dunnett's multiple comparison to the MI group.

[3] = Rat post-myocardial infarction model; assay type: in vivo; conditions: male, Sprague-Dawley, rat, plasma, oral; MI rats, 30 mg/kg/day in chow; read-out: olinciguat plasma concentration at week 8
Procedure: as §1, §2, §3

sGC = target: T1, sGC (Homo sapiens, UniProt Q02108+Q02153); assay: sGC whole cell assay (HEK-293, cGMP production); assay type: cell-based
T1 construct: HEK-293 cells endogenously expressing sGC were treated with olinciguat; host or cells: HEK-293
T1 sequence (Q02153 1-619): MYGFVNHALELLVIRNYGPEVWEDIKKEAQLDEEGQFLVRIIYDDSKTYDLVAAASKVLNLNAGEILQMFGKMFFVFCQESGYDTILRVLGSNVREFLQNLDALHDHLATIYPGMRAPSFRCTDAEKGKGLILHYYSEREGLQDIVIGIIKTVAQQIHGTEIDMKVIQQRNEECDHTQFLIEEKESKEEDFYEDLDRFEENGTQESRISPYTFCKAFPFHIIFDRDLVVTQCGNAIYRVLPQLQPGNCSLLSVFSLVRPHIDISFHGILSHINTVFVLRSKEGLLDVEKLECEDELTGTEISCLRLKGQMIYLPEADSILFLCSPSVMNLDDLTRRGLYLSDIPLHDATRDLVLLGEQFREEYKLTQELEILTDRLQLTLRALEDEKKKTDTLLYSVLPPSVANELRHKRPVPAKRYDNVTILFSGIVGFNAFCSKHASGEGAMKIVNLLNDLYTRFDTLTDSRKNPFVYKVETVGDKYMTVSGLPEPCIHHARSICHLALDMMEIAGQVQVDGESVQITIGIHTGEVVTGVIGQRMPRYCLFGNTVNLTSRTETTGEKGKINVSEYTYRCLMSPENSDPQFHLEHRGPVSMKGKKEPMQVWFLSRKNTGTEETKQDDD
T1 sequence (Q02108 1-690): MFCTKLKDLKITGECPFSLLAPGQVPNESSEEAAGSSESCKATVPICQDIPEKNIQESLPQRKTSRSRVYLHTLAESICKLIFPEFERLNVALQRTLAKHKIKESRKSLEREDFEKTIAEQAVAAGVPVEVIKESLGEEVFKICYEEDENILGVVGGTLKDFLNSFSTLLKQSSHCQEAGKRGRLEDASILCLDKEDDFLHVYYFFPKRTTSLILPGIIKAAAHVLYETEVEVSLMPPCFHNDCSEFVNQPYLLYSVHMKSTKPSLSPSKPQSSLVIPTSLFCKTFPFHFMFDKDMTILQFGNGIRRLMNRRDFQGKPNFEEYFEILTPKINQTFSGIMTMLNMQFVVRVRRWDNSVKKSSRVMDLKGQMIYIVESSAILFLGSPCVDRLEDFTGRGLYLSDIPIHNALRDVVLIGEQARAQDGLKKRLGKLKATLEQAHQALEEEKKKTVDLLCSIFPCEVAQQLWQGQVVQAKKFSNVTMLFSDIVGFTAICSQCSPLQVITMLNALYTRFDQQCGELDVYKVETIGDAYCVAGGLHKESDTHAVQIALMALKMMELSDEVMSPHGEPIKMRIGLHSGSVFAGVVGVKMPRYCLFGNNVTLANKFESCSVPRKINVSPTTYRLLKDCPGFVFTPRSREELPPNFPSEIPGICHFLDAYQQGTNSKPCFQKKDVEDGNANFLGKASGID
Procedure: The human embryonic kidney (HEK)-293 whole cell assay was performed as described ([Tobin et al., 2018]). Briefly, HEK-293 cells (ATCC, Manassas, VA, #CRL-1573) were maintained in Dulbecco's modified Eagle's medium (DMEM) containing serum and antibiotics. Assays were performed in 384-well plates at 37°C by preincubating with 0.5 mM 3-isobutyl-1-methylxanthine (IBMX) in Hanks' Balanced Salt Solution (HBSS) containing calcium and magnesium for 15 min, then adding olinciguat with or without the NO donor diethylenetriamine NONOate (DETA), followed by a 20-min incubation. Cells were lysed with ice-cold 10% acetic acid then centrifuged, and cGMP levels in supernatants were determined by reverse-phase liquid chromatography with tandem mass spectrometry (LC-MS/MS). Concentration-response data were fit using a four-parameter fit (log(agonist) vs response – variable slope) using GraphPad Prism v.7.

fraction unbound at 18 h [1]: 0.0199
Olinciguat concentration (free) [2]: 1.6–1.8 nM^e
concentration at 8 weeks [3]: 167 ± 11 nM
EC50 (sGC; HEK-293 cells endogenously expressing sGC, in the presence of 10 µM DETA, geometric mean of 14 experiments, 95% CI 42.7 to 105 nM, read-out: EC50, cGMP production): 73.8 nM
EC50 (sGC; Table 2 summary, 10 µM DETA, read-out: Human cellular sGC assay (HEK-293) EC50, olinciguat concentration (range = 95% CI)): 42.7 to 105 nM
Compound: NC(=O)[C@](O)(CNc1nc(-c2cc(-c3ccon3)n(Cc3ccccc3F)n2)ncc1F)C(F)(F)F [olinciguat, (R)-3,3,3-trifluoro-2-(((5-fluoro-2-(1-(2-fluorobenzyl)-5-(isoxazol-3-yl)-1H-pyrazol-3-yl)pyrimidin-4-yl)amino)methyl)-2-hydroxypropanamide]
